{
  "source": "paper PMC5125025",
  "about": "(Science (New York, N.Y.), 2015)",
  "key": {"RsTSPO A139T mutant": {"biological_target": "RsTSPO A139T mutant (Cereibacter sphaeroides, UniProt Q9RFC8, A139T)", "sequence (Q9RFC8 whole entry A139T)": "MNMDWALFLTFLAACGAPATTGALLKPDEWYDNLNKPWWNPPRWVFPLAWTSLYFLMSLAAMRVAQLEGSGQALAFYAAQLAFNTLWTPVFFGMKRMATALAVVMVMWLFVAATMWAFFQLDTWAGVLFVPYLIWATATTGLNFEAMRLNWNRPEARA", "experiment": "Ligand binding affinity of purified RsTSPO A139T mutant", "set-up": "species or system Rhodobacter sphaeroides"}, "RsTSPO WT": {"system": "RsTSPO WT", "conditions": "cited from earlier work"}},
  "data": [
    {"smiles": "CCC(C)N(C)C(=O)c1cc2ccccc2c(-c2ccccc2Cl)n1", "note": "(stereo not drawn) [PK11195]", "values": [
      {"measurement": "Kd", "setting": "RsTSPO A139T mutant", "result": "42 ± 4", "unit": "µM"},
      {"measurement": "affinities of RsTSPO for ligands (range in words)", "setting": "RsTSPO WT", "result": "high nanomolar to micromolar range"}
    ]},
    {"smiles": "C=CC1=C(C)c2cc3[nH]c(cc4nc(cc5[nH]c(cc1n2)c(C)c5CCC(=O)O)C(CCC(=O)O)=C4C)c(C)c3C=C", "note": "[PpIX, protoporphyrin IX]", "values": [
      {"measurement": "Kd", "setting": "RsTSPO A139T mutant", "result": "1.9 ± 0.3", "unit": "µM"},
      {"measurement": "affinities of RsTSPO for ligands (range in words)", "setting": "RsTSPO WT", "result": "high nanomolar to micromolar range"}
    ]},
    {"smiles": "CC(C)CCC[C@@H](C)[C@H]1CC[C@H]2[C@@H]3CC=C4C[C@@H](O)CC[C@]4(C)[C@H]3CC[C@]12C", "note": "[cholesterol]", "values": [
      {"measurement": "Kd", "setting": "RsTSPO A139T mutant", "result": "> 300", "unit": "µM"},
      {"measurement": "affinities of RsTSPO for ligands (range in words)", "setting": "RsTSPO WT", "result": "high nanomolar to micromolar range"}
    ]}
  ]
}
